In patent US20260167656A1, “PHOSPHORAMIDATE COMPOUNDS AND USES THEREOF” (ALLORION THERAPEUTICS INC, priority 2022, published 2026):

Key:
[1] = tested on: non-small cell lung cancer cell line H460; assay: In vitro human cancer cell line cytotoxicity (proliferation) assay in H460, CellTiter-Glo, 72 hours; assay type: cell-based; conditions: H460 cells, DMSO condition (no AKR1C3 inhibitor), read-out: CTG H460: Avg IC50 (nM) [Assay Condition: DMSO]
Procedure: Biological Example 1. In Vitro Human Cancer Cell Line Cytotoxicity Assay
IC50 values in nanomolar reported here were derived from in vitro proliferation assay data in non-small cell lung cancer cell line H460.
(§1) Specifically, exponentially growing cells were seeded at density of 3×10^3 cells per well in 96-well plate and incubated at 37° C. in 5% CO2, 95% air and 100% relative humidity for 24 hours before adding compounds. Compounds were solubilized in 100% DMSO at 10 mM. Compounds were added to the plate using Tecan D300e® digital Dispenser. After drug addition, the plates were incubated for an additional 72 hours at 37° C. in 5% CO2, 95% air and 100% relative humidity. At the end of the incubation, cell viability was quantified with CellTiter-Glo® assay.

[2] = tested on: non-small cell lung cancer cell line H460; assay: H460 proliferation assay in the presence of 3 uM ASP9521 (AKR1C3 specific inhibitor); assay type: cell-based, human; conditions: H460 cells, CellTiter-Glo, 72 hours, in the presence of 3 uM ASP9521 added 4 hours prior to compounds; read-out: CTG H460: Avg IC50 (nM) [Assay Condition: ASP9521]
Procedure: as §1
To further confirm that compounds were activated by human AKR1C3, H460 proliferation assay were also performed in the presence of 3 uM […], an AKR1C3 specific inhibitor. ASP9521 were added to the plates 4 hours prior to the addition of compounds.

| SMILES | IC50 ([1]; Homo sapiens, NCI-H460, 72 h) [nM] | IC50 [2] [nM] | IC50 [1] [nM] |
| --- | --- | --- | --- |
| C[C@H]1CN1P(=O)(OC(c1ccc([N+](=O)[O-])c(Oc2cccc(C(=O)N(C)C)c2)c1)C(F)(F)F)N1C[C@@H]1C (single isomer, unassigned) [Example 225] | 50 to 100 | 9530 | – |
| CC(OP(=O)(N1CC1)N1CC1)c1cc2cc(Oc3cccc(C(=O)N(C)C)c3)c([N+](=O)[O-])cc2o1 (single isomer, unassigned) [Example 232] | 10 to 50 | 4110 | – |
| CC(OP(=O)(N1CC1)N1CC1)c1cc2cc(Oc3cccc(C(=O)N(C)C)c3)c([N+](=O)[O-])cc2o1 (single isomer, unassigned) [Example 233] | – | 3890 | < 10 |
| Cc1ccnc(-c2ccc(Oc3c([N+](=O)[O-])ccc4c3CC[C@@H]4OP(=O)(N3CC3)N3CC3)cc2)n1 (single isomer, unassigned) [Example 264] | < 10 | 1370 | – |
| O=[N+]([O-])c1ccc2c(c1Oc1ccc(-c3ncc(F)cn3)cc1)CC[C@@H]2OP(=O)(N1CC1)N1CC1 (single isomer, unassigned) [Example 265] | < 10 | 1300 | – |
| O=[N+]([O-])c1ccc2c(c1Oc1ccc(-c3ncc(F)cn3)cc1)CC[C@H]2OP(=O)(N1CC1)N1CC1 (single isomer, unassigned) [Example 266] | 10 to 50 | 716 | – |
| Cn1ccc2c(F)cc(Oc3c([N+](=O)[O-])ccc4c3CC[C@@H]4OP(=O)(N3CC3)N3CC3)cc21 (single isomer, unassigned) [Example 377] | < 10 | 1330 | – |
| O=[N+]([O-])c1ccc2c(c1Oc1ccc(F)c(-n3cccn3)c1)CC[C@@H]2OP(=O)(N1CC1)N1CC1 (single isomer, unassigned) [Example 403] | < 10 | 1460 | – |
| C[C@@H](OP(=O)(N1CC1)N1CC1)c1cc2cc(Oc3cccc(OC(F)(F)F)c3)c([N+](=O)[O-])cc2o1 (single isomer, unassigned) [Example 531] | < 10 | 1430 | – |
| C[C@H](OP(=O)(N1CC1)N1CC1)c1cc2cc(Oc3cccc(OC(F)(F)F)c3)c([N+](=O)[O-])cc2o1 (single isomer, unassigned) [Example 532] | < 10 | 1230 | – |
| [2H]C([2H])([2H])N(C(=O)c1cccc(Oc2cc3cc([C@H](C)OP(=O)(N4CC4)N4CC4)oc3cc2[N+](=O)[O-])c1)C([2H])([2H])[2H] (single isomer, unassigned) [Example 533] | 10 to 50 | 7430 | – |
| CC(OP(=O)(N1CC1)N1CC1)c1ccc([N+](=O)[O-])c(Cn2ccc(=O)cc2)c1 (stereo not shown) [Example 4] | ≥ 100 | > 10000 | – |
| CC(OP(=O)(N1CC1)N1CC1)c1ccc([N+](=O)[O-])c(COc2ccncc2)c1 (stereo not shown) [Example 5] | ≥ 100 | > 10000 | – |
| CC(OP(=O)(N1CC1)N1CC1)c1ccc([N+](=O)[O-])c(Cn2cc(C(=O)N(C)C)ccc2=O)c1 (stereo not shown) [Example 6] | ≥ 100 | > 10000 | – |
| CC(OP(=O)(N1CC1)N1CC1)c1ccc([N+](=O)[O-])c(COc2ccc(C(=O)N(C)C)cn2)c1 (stereo not shown) [Example 7] | 10 to 50 | 3950 | – |
| CC(OP(=O)(N1CC1)N1CC1)c1cc(Oc2ccc(C(=O)N(C)C)cc2)c([N+](=O)[O-])cc1F (stereo not shown) [Example 8] | < 10 | 1790 | – |
| CC(OP(=O)(N1CC1)N1CC1)c1cc(Oc2ccc(C(=O)N(C)C)cc2)c([N+](=O)[O-])cc1Cl (stereo not shown) [Example 9] | < 10 | 1720 | – |
| CCC1CN1P(=O)(OCc1ccc([N+](=O)[O-])c(Oc2cccc(C(=O)N(C)C)c2)c1)N1CC1CC (stereo not shown) [Example 10] | < 10 | 271 | – |
| CC(C)C1CN1P(=O)(OCc1ccc([N+](=O)[O-])c(Oc2cccc(C(=O)N(C)C)c2)c1)N1CC1C(C)C (stereo not shown) [Example 11] | ≥ 100 | 2050 | – |
| C[C@H]1CN1P(=O)(OCc1c(F)c(F)c(OCc2ccc([N+](=O)[O-])c(Oc3cccc(C(=O)N(C)C)c3)c2)c(F)c1F)N1C[C@@H]1C (stereo partly drawn) [Example 12, 4-((3-(3-(dimethylcarbamoyl)phenoxy)-4-nitrobenzyl)oxy)-2,3,5,6-tetrafluorobenzyl bis((S)-2-methylaziridin-1-yl)phosphinate] | < 10 | 89 | – |
| C[C@@H]1CN1P(=O)(OCc1c(F)c(F)c(OCc2ccc([N+](=O)[O-])c(Oc3cccc(C(=O)N(C)C)c3)c2)c(F)c1F)N1C[C@H]1C (stereo partly shown) [Example 13] | < 10 | 195 | – |
| C[C@H]1CN1P(=O)(OCc1c(F)c(F)c(OCc2ccc([N+](=O)[O-])c(Oc3ccc(C(=O)N(C)C)cc3)c2)c(F)c1F)N1C[C@@H]1C (stereo partly shown) [Example 14] | < 10 | 553 | – |
| C[C@@H]1CN1P(=O)(COc1c(F)c(F)c(OCc2ccc([N+](=O)[O-])c(Oc3ccc(C(=O)N(C)C)cc3)c2)c(F)c1F)N1C[C@H]1C (stereo partly shown) [Example 15] | < 10 | 947 | – |
| O=[N+]([O-])c1ccc2c(c1Oc1ccccc1)CCC2OP(=O)(N1CC1)N1CC1 (stereo not shown) [Example 16, 5-nitro-4-phenoxy-2,3-dihydro-1H-inden-1-yl di(aziridin-1-yl)phosphinate] | 10 to 50 | 261 | – |

| SMILES | IC50 ([1]; Homo sapiens, NCI-H460, 72 h) [nM] | IC50 [2] [nM] | IC50 [1] [nM] |
| --- | --- | --- | --- |
| O=[N+]([O-])c1ccc2c(c1Oc1ccc(-c3ccc(F)cc3)cc1)CCC2OP(=O)(N1CC1)N1CC1 (stereo not shown) [Example 21] | < 10 | 1420 | – |
| O=[N+]([O-])c1ccc2c(c1Oc1ccc(-c3ccc(F)cc3)cc1)CCC2OP(=O)(N1CC1)N1CC1 (stereo not shown) [Example 22] | – | 1640 | 10 to 50 |
| CN1Cc2ccc(Oc3c([N+](=O)[O-])ccc4c3CCC4OP(=O)(N3CC3)N3CC3)cc2C1=O (stereo not shown) [Example 23] | < 10 | 75.9 | – |
| CN1Cc2ccc(Oc3c([N+](=O)[O-])ccc4c3CCC4OP(=O)(N3CC3)N3CC3)cc2C1=O (stereo not shown) [Example 24] | – | 916 | < 10 |
| O=[N+]([O-])c1ccc2c(c1Oc1ccc(C(F)(F)F)nc1)CCC2OP(=O)(N1CC1)N1CC1 (stereo not shown) [Example 25] | < 10 | 92.9 | – |
| O=[N+]([O-])c1ccc2c(c1Oc1ccc(C(F)(F)F)nc1)CCC2OP(=O)(N1CC1)N1CC1 (stereo not shown) [Example 26] | – | 298 | < 10 |
| O=[N+]([O-])c1ccc2c(c1Oc1ccc(-c3ccc(F)cn3)c(F)c1)CCC2OP(=O)(N1CC1)N1CC1 (stereo not shown) [Example 29] | < 10 | 1220 | – |
| O=C(c1ccc(Oc2c([N+](=O)[O-])ccc3c2CCC3OP(=O)(N2CC2)N2CC2)cc1)N1CCOCC1 (stereo not shown) [Example 34] | 10 to 50 | 822 | – |
| O=C(c1ccc(Oc2c([N+](=O)[O-])ccc3c2CCC3OP(=O)(N2CC2)N2CC2)cc1)N1CCOCC1 (stereo not shown) [Example 35] | – | 472 | < 10 |
| CNC(=O)c1ccc(Oc2c([N+](=O)[O-])ccc3c2CCC3OP(=O)(N2CC2)N2CC2)cc1 (stereo not shown) [Example 36] | 10 to 50 | 527 | – |
| CNC(=O)c1ccc(Oc2c([N+](=O)[O-])ccc3c2CCC3OP(=O)(N2CC2)N2CC2)cc1 (stereo not shown) [Example 37] | – | 178 | < 10 |
| O=[N+]([O-])c1ccc2c(c1Oc1ccc(-c3ccc(Cl)cc3)cc1)CCC2OP(=O)(N1CC1)N1CC1 (stereo not shown) [Example 44] | – | 1940 | ≥ 100 |
| O=[N+]([O-])c1ccc2c(c1Oc1ccc(-c3ccc(Cl)cc3)cc1)CCC2OP(=O)(N1CC1)N1CC1 (stereo not shown) [Example 45] | – | 5550 | 10 to 50 |
| Cn1cccc(-c2ccc(Oc3c([N+](=O)[O-])ccc4c3CCC4OP(=O)(N3CC3)N3CC3)cc2)c1=O (stereo not shown) [Example 48] | – | 1010 | ≥ 100 |
| Cn1cccc(-c2ccc(Oc3c([N+](=O)[O-])ccc4c3CCC4OP(=O)(N3CC3)N3CC3)cc2)c1=O (stereo not shown) [Example 49] | – | 920 | < 10 |
| O=[N+]([O-])c1ccc2c(c1Oc1ccc(-c3ccccc3)nc1)CCC2OP(=O)(N1CC1)N1CC1 (stereo not shown) [Example 50] | < 10 | 335 | – |
| O=[N+]([O-])c1ccc2c(c1Oc1ccc(-c3ccccc3)nc1)CCC2OP(=O)(N1CC1)N1CC1 (stereo not shown) [Example 51] | – | 327 | < 10 |
| O=C(NC1CCC1)c1ccc(Oc2c([N+](=O)[O-])ccc3c2CCC3OP(=O)(N2CC2)N2CC2)cc1 (stereo not shown) [Example 52] | 10 to 50 | 700 | – |
| O=C(NC1CCC1)c1ccc(Oc2c([N+](=O)[O-])ccc3c2CCC3OP(=O)(N2CC2)N2CC2)cc1 (stereo not shown) [Example 53] | – | 945 | < 10 |
| O=C1c2ccc(Oc3c([N+](=O)[O-])ccc4c3CCC4OP(=O)(N3CC3)N3CC3)cc2CN1C1CC1 (stereo not shown) [Example 56] | < 10 | 447 | – |
| O=C1c2ccc(Oc3c([N+](=O)[O-])ccc4c3CCC4OP(=O)(N3CC3)N3CC3)cc2CN1C1CC1 (stereo not shown) [Example 57] | – | 219 | < 10 |
| Cn1cc(-c2ccc(Oc3c([N+](=O)[O-])ccc4c3CCC4OP(=O)(N3CC3)N3CC3)cc2)ccc1=O (stereo not shown) [Example 60] | – | 1010 | ≥ 100 |
| Cn1cc(-c2ccc(Oc3c([N+](=O)[O-])ccc4c3CCC4OP(=O)(N3CC3)N3CC3)cc2)ccc1=O (stereo not shown) [Example 61] | – | 1010 | 10 to 50 |
